According to US20120010075A1 (priority 2009, published 2012):
Where two headings read alike, the source gives them in different places.

Columns and labels:
[1] = system: Leptosphaeria nodorum (LEPTNO); experiment: In vitro fungitoxicity of hydrazones with and without copper towards Leptosphaeria nodorum (Example 26); assay type: cell-based; settings: 72 h at 25° C.; for inhibition of growth at 0.05 µg/mL: Parastagonospora nodorum, 72 h, copper-minus medium, read-out: LEPTNO % Inhn. Minus Copper Observed
Phytophthora infestans = assay type: in vivo, Phytophthora infestans on tomato; settings: applied 24 h before inoculation, assessed 7 days after inoculation
[2] = compound 0.05 μg/mL, copper-plus medium (CuCl2.2H2O)
[3] = hydrazone 50 ppm + 50 μM CuCl2.2H2O, tomato
[4] = test compound Concn. 0.05 μg/mL
[5] = copper-plus medium (CuCl2 10 μM), test compound Concn. 0.05 μg/mL
[6] = hydrazone 50 ppm with 50 μM CuCl2.2H2O, tomato late blight

SMILES | inhibition of growth at 0.05 µg/mL ([1]; compound 0.05 μg/mL) [%] | LEPTNO % Inhn. Plus Copper Observed [1, 2] [%] | TLB % Control (Phytophthora infestans; [3]) [%] | melting point [°C] | inhibition of growth at 0.05 µg/mL [1, 4] [%] | LEPTNO % Inhn. Plus Copper Observed [1, 5] [%] | TLB % Control (Phytophthora infestans; [6]) [%]
C/C(=N\NC(=O)c1ccccc1C)c1cccc([N+](=O)[O-])c1O [Example 269] | 0 | 98.8 | 21.0 | 193 to 196 |  |  | 
COc1ccc(O)c(/C(C)=N/NC(=O)c2ccccc2C)c1 [Example 262] | 3.1 | 94.0 | 4.6 | 146 to 155 |  |  | 
Cc1cccc(C(=O)N/N=C/c2cc(Cl)cc(Cl)c2O)c1O [Example 73] | 8.6 | 98.0 | 87.3 | 202 to 209 |  |  | 
C/C(=N\NC(=O)c1ccc(C(F)(F)F)cc1)c1cc(F)cc(F)c1O [Example 581] |  |  |  | 287 to 291 | 13.6 | 98.2 | 93.0
Cc1cccc(C(=O)N/N=C/c2c(Cl)ccc(Cl)c2O)c1 [Example 365] |  |  |  | 214 to 216 | 13.8 | 95.6 | 95.0
O=C(N/N=C/c1cc(C(F)(F)F)cc(Cl)c1O)c1ccc(F)cc1 [Example 324] |  |  |  | 200 to 202 | 2.3 | 96.3 | 98.0
O=C(N/N=C/c1cccc(C(F)(F)F)c1O)c1ccc(F)cc1 [Example 346] |  |  |  | 187 to 188 | 30 | 96.7 | 96.0
C/C(=N\NC(=O)c1ccc(C)cc1)c1cc(Br)cc(Br)c1O [Example 542] |  |  |  | 258 to 259 | 0 | 95.8 | 100.0
O=C(N/N=C/c1c(O)cccc1Cl)c1ccccc1O [Example 406] |  |  |  | 277 to 280 | 6.7 | 96.1 | 98.0
CC(C)(C)/C(=N\NC(=O)c1ccccc1)c1ccccc1O [Example 592] |  |  |  | 241 to 243 | 0 | 25.4 | 1.4
C/C(=N\NC(=O)c1ccc(C(F)(F)F)cc1)c1ccc(Cl)cc1O [Example 461] |  |  |  | 244 to 245 | 3.4 | 96.7 | 54.0
C/C(=N\NC(=O)c1ccc(C)cc1O)c1cc(Cl)cc(Cl)c1O [Example 491] |  |  |  | 320 to 323 | 25 | 97.5 | 75.0
C/C(=N\NC(=O)c1cccc(Cl)c1)c1cc(Br)ccc1O [Example 292] | 5 | 97.6 | 21.0 | 235 to 240 |  |  | 
O=C(N/N=C/c1cc(C(F)(F)F)cc(C(F)(F)F)c1O)c1cccc(F)c1 [Example 334] |  |  |  | 240 to 242 | 10.9 | 97.8 | 98.0
COc1cccc(C(=O)N/N=C/c2cc(Cl)cc(Br)c2O)c1 [Example 166] | 2.6 | 97.9 | 71.9 | 166 to 168 |  |  | 
Cc1cc(C)cc(C(=O)N/N=C/c2cc([N+](=O)[O-])cc(Br)c2O)c1 [Example 208] | 5.4 | 97.0 | 32.8 | 283 to 300 |  |  | 
C/C(=N\NC(=O)c1ccc(Cl)cc1)c1cc(C(F)(F)F)ccc1O [Example 533] |  |  |  | 263 to 265 | 6.2 | 97.0 | 34.0
Cc1cc(C)cc(C(=O)N/N=C/c2cc(Cl)cc(Br)c2O)c1 [Example 168] | 13.3 | 97.7 | 59.6 | 223 to 226 |  |  | 
C/C(=N\NC(=O)c1ccccc1C)c1cc(C(F)(F)F)ccc1O [Example 528] |  |  |  | 200 to 203 | 8.7 | 97.7 | 73.0
COc1cccc(C(=O)N/N=C(\C)c2cc(Cl)cc(Cl)c2O)c1O [Example 484] |  |  |  | 258 to 259 | 12.6 | 93.2 | 88.0

SMILES | inhibition of growth at 0.05 µg/mL ([1]; compound 0.05 μg/mL) [%] | LEPTNO % Inhn. Plus Copper Observed [1, 2] [%] | TLB % Control (Phytophthora infestans; [3]) [%] | melting point [°C] | inhibition of growth at 0.05 µg/mL [1, 4] [%] | LEPTNO % Inhn. Plus Copper Observed [1, 5] [%] | TLB % Control (Phytophthora infestans; [6]) [%]
C/C(=N\NC(=O)c1cccc(Cl)c1)c1cc(C(F)(F)F)ccc1O [Example 532] |  |  |  | 241 to 245 | 4.9 | 91.4 | 56.0
O=C(N/N=C/c1cc(C(F)(F)F)cc(Cl)c1O)c1ccc(Cl)cc1 [Example 326] |  |  |  | 208 to 210 | 6.9 | 95.6 | 93.0
C/C(=N\NC(=O)c1ccccc1Cl)c1cc(Br)cc(Br)c1O [Example 543] |  |  |  | 207 to 209 | 1.3 | 93.9 | 100.0
O=C(N/N=C/c1cccc(C(F)(F)F)c1O)c1cccc([N+](=O)[O-])c1 [Example 349] |  |  |  | 215 to 217 | 17.4 | 96.9 | 97.0
CC(C)(C)N(/N=C/c1ccccc1O)C(=O)c1ccccc1 [Example 217] | 0 | 92.7 | 0.0 | 91 to 104 |  |  | 
O=C(N/N=C/c1cccc(C(F)(F)F)c1O)c1cccc(Cl)c1 [Example 347] |  |  |  | 185 to 187 | 13.8 | 98.4 | 97.0
N#Cc1cccc(C(=O)N/N=C/c2cc(Cl)cc(Cl)c2O)c1 [Example 309] |  |  |  | 252 to 271 | 5.5 | 97.4 | 74.0
O=C(N/N=C/c1cc(C(F)(F)F)cc(Cl)c1O)c1ccc([N+](=O)[O-])cc1 [Example 328] |  |  |  | 253 to 255 | 0 | 95.1 | 99.0
COc1ccc(C(=O)N/N=C(\C)c2cccc([N+](=O)[O-])c2O)cc1 [Example 521] |  |  |  | 204 to 212 | 5 | 95.9 | 83.0
C/C(=N\NC(=O)c1ccccc1O)c1cc(Br)ccc1O [Example 520] |  |  |  | 281 to 303 | 14.9 | 96.7 | 49.0
COc1cccc(C(=O)N/N=C/c2cc(Cl)cc(Br)c2O)c1C [Example 132] | 9.1 | 97.7 | 65.5 | 187 to 189 |  |  | 
COc1ccc(O)c(C(=O)N/N=C/c2cc(Cl)cc(Cl)c2O)c1 [Example 487] |  |  |  | 250 to 252 | 11.2 | 93.9 | 100.0
Cc1cc(C)cc(C(=O)N/N=C/c2ccccc2O)c1 [Example 167] | 0 | 95.8 | 67.3 | 203 to 205 |  |  | 
C/C(=N\NC(=O)c1cccc(Br)c1)c1cc(Cl)cc(Cl)c1O [Example 138] | 4 | 98.1 | 91.0 | 247 to 253 |  |  | 
C/C(=N\NC(=O)c1ccc(Br)cc1)c1cccc([N+](=O)[O-])c1O [Example 522] |  |  |  | 244 to 252 | 9.4 | 97.3 | 95.0
O=C(N/N=C(\CCc1ccccc1)c1ccccc1O)c1ccccc1Cl [Example 49] | 14.6 | 97.1 | 0.7 | 173 to 177 |  |  | 
C/C(=N\NC(=O)c1ccc(Cl)cc1)c1cccc(Cl)c1O [Example 498] |  |  |  | 208 to 209 | 0 | 97.5 | 85.0
O=C(N/N=C/c1cc(Cl)ccc1O)c1cc(Cl)ccc1Cl [Example 189] | 19.2 | 95.9 | 72.7 | 185 to 188 |  |  | 
C/C(=N\NC(=O)c1ccc(Br)cc1)c1ccccc1O [Example 458] |  |  |  | 218 to 221 | 3.7 | 96.6 | 46.0
Cc1ccc(C(=O)N/N=C/c2cccc(C(F)(F)F)c2O)cc1 [Example 344] |  |  |  | 239 to 241 | 31.5 | 91.8 | 100.0
